Data on 30 molecules can be found in patent US20150031668A1, “CHROMAN DERIVATIVES AS TRPM8 INHIBITORS” (AMGEN INC., priority 2013, published 2015).

SMILES strings stand for the structures. Structures can show the parent of a compound that is named as a salt.

T1 sequence (Q7Z2W7 whole entry): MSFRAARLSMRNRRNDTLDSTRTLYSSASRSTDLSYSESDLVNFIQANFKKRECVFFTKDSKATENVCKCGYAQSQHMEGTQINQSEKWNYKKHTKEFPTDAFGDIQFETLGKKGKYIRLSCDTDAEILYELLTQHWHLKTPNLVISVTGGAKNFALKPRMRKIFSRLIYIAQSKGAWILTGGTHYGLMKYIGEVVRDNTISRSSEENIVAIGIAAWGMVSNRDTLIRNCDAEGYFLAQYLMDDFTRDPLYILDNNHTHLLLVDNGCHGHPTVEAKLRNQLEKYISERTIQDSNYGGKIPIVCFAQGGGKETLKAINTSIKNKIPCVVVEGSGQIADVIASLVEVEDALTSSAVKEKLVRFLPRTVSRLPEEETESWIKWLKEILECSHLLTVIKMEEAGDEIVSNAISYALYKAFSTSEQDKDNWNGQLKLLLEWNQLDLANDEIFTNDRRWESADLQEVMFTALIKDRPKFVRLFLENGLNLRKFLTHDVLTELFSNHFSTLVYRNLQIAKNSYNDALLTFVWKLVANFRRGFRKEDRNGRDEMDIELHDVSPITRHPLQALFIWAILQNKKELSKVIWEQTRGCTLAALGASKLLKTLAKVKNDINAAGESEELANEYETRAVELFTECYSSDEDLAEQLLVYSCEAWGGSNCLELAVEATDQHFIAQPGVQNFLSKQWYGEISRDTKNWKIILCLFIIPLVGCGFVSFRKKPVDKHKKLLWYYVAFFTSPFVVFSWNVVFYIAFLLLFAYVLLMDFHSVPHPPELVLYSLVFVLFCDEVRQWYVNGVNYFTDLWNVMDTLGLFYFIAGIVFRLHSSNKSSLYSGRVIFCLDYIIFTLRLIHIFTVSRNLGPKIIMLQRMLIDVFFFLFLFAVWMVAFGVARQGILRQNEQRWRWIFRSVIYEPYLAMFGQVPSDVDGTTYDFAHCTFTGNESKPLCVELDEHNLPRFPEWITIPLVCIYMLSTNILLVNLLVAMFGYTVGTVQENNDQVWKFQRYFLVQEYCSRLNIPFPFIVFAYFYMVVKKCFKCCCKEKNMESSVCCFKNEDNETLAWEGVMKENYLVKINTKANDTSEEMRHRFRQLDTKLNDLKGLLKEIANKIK

The experiment addresses T1, human TRPM8 (Homo sapiens, UniProt Q7Z2W7).
T1 construct: expressed in transfected cells; host or cells: Chinese hamster ovary (CHO) cells, T-REx tetracycline-inducible expression system (Invitrogen); co-transfected with pcDNA3.1 aequorin
Put plainly: Luminescence readout assay for measuring intracellular calcium (aequorin, CHO cells expressing human TRPM8; icilin, L-menthol or cold activation). Type of experiment: cell-based. Particulars: CHO cells expressing human TRPM8, icilin activation (1 μM), aequorin luminescence; read-out: hTRPM8 IC50. The method in brief: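 Activation was by 1 μM icilin, 100 μM L-menthol (test compound 2.5 min ahead) or cold buffer below 10° C (compound 1 min ahead). Calcium rise measured as aequorin luminescence in CHO cells with tetracycline-inducible human TRPM8.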
As usually defined, the IC50 is the concentration at which inhibition is half-maximal. Take `O=C(O)c1c[nH]c(C(=O)N[C@]2(c3ccc(OC(F)(F)F)c(F)c3)CCOc3cccnc32)c1` [Example 334, (S)-5-((4-(3-fluoro-4-(trifluoromethoxy)phenyl)-3,4-dihydro-2H-pyrano[3,2-b]pyridin-4-yl)carbamoyl)-1H-pyrrole-3-carboxylic acid]: the 50% inhibitory concentration (IC50) came to 1010 nM.

`CCOC(=O)c1nc(C(=O)N[C@]2(c3ccc(OC(F)(F)F)c(F)c3)CCOc3cccnc32)cs1` [Example 279, (S)-ethyl 4-((4-(3-fluoro-4-(trifluoromethoxy)phenyl)-3,4-dihydro-2H-pyrano[3,2-b]pyridin-4-yl)carbamoyl) thiazole-2-carboxylate]: the IC50 is 53 nM.

Regarding `O=C(Nc1ccc(Cl)nc1)N[C@]1(c2ccc(OC(F)(F)F)c(F)c2)CCOc2cccnc21` [Example 69, (S)-1-(6-chloropyridin-3-yl)-3-(4-(3-fluoro-4-(trifluoromethoxy)phenyl)-3,4-dihydro-2H-pyrano[3,2-b]pyridin-4-yl)urea], the IC50 amounted to 36 nM.

Turning to `O=C(N[C@]1(c2ccc(OC(F)(F)F)c(F)c2)CCOc2cccnc21)c1cc(F)c(O)c(F)c1` [Example 207, (S)-3,5-difluoro-N-(4-(3-fluoro-4-(trifluoromethoxy)phenyl)-3,4-dihydro-2H-pyrano[3,2-b]pyridin-4-yl)-4-hydroxybenzamide], the concentration for half-maximal inhibition (IC50) is 1 nM.

With `N#Cc1ccc(C(=O)N[C@]2(c3ccc(OC(F)(F)F)c(F)c3)CCOc3cccnc32)nc1` [Example 171, (S)-5-cyano-N-(4-(3-fluoro-4-(trifluoromethoxy)phenyl)-3,4-dihydro-2H-pyrano[3,2-b]pyridin-4-yl) picolinamide], the IC50 was found to be 12 nM.

`Cn1ncc2cc(C(=O)N[C@]3(c4ccc(OC(F)(F)F)cc4)CCOc4cccnc43)ccc21` [Example 262, (S)-1-methyl-N-(4-(4-(trifluoromethoxy)phenyl)-3,4-dihydro-2H-pyrano[3,2-b]pyridin-4-yl)-1H-indazole-5-carboxamide formate]: the IC50 worked out at 7 nM.

In the case of `O=C(N[C@]1(c2ccc(OC(F)(F)F)c(F)c2)CCOc2cccnc21)c1ccc2[nH]c(=O)c(=O)[nH]c2c1` [Example 64, (S)—N-(4-(3-fluoro-4-(trifluoromethoxy)phenyl)-3,4-dihydro-2H-pyrano[3,2-b]pyridin-4-yl)-2,3-dioxo-1,2,3,4-tetrahydroquinoxaline-6-carboxamide], the IC50 was found to be 335 nM.

For the molecule `O=C(N[C@]1(c2ccc(-c3cccc(CO)c3)cc2)CCOc2cccnc21)c1ccc(F)cc1` [Example 118, (S)-4-fluoro-N-(4-(3′-(hydroxymethyl)-[1,1′-biphenyl]-4-yl)-3,4-dihydro-2H-pyrano[3,2-b]pyridin-4-yl)benzamide], the IC50 came out at 2170 nM.

With `CNC(=O)c1ccc(C(=O)N[C@]2(c3ccc(OC(F)(F)F)c(F)c3)CCOc3cccnc32)cn1` [Example 63, (S)-N5-(4-(3-fluoro-4-(trifluoromethoxy)phenyl)-3,4-dihydro-2H-pyrano[3,2-b]pyridin-4-yl)-N2-methylpyridine-2,5-dicarboxamide], the IC50 was 19 nM.

Take `O=C(N[C@]1(c2ccc(OC(F)(F)F)c(F)c2)CCOc2cccnc21)c1ccc(C(=O)O)c(C2CC2)c1` [Example 300, (S)-2-cyclopropyl-4-((4-(3-fluoro-4-(trifluoromethoxy)phenyl)-3,4-dihydro-2H-pyrano[3,2-b]pyridin-4-yl)carbamoyl)benzoic acid]: the IC50 turned out to be 12 nM.

Turning to `O=C(N[C@]1(c2ccc(C(F)(F)F)cc2)CCOc2cccnc21)c1ccncc1` [Example 46, (S)-N-(4-(4-(trifluoromethyl)phenyl)-3,4-dihydro-2H-pyrano[3,2-b]pyridin-4-yl)isonicotinamide], the IC50 worked out at 358 nM.

For `O=C(Nc1cc(F)c(O)c(F)c1)N[C@]1(c2ccc(OC(F)(F)F)c(F)c2)CCOc2cccnc21` [Example 97, (S)-1-(3,5-difluoro-4-hydroxyphenyl)-3-(4-(3-fluoro-4-(trifluoromethoxy)phenyl)-3,4-dihydro-2H-pyrano[3,2-b]pyridin-4-yl)urea], the IC50 amounted to 159 nM.

With `O=C(Nc1cccc(F)c1)N[C@]1(c2ccc(C(F)(F)F)cc2)CCOc2cccnc21` [Example 72, (S)-1-(3-fluorophenyl)-3-(4-(4-(trifluoromethyl)phenyl)-3,4-dihydro-2H-pyrano[3,2-b]pyridin-4-yl)urea], the IC50 was determined as 112 nM.

Turning to `O=C(N[C@]1(c2ccc(OC(F)(F)F)cc2)CCOc2cccnc21)c1ccc2cc[nH]c2c1` [Example 235, (S)-N-(4-(4-(trifluoromethoxy)phenyl)-3,4-dihydro-2H-pyrano[3,2-b]pyridin-4-yl)-1H-indole-6-carboxamide formate], the IC50 worked out at 35.7 nM.

`O=C(N[C@]1(c2ccc(OC(F)(F)F)c(F)c2)CCOc2cccnc21)c1ccc(C(O)C(F)(F)F)cc1` (mixture of isomers) [Example 159, N—((S)-4-(3-fluoro-4-(trifluoromethoxy)phenyl)-3,4-dihydro-2H-pyrano[3,2-b]pyridin-4-yl)-4-((R)-2,2,2-trifluoro-1-hydroxyethyl)benzamide and N—((S)-4-(3-fluoro-4-(trifluoromethoxy)phenyl)-3,4-dihydro-2H-pyrano[3,2-b]pyridin-4-yl)-4-((S)-2,2,2-trifluoro-1-hydroxyethyl)benzamide (1:1)]: the IC50 amounted to 46 nM.

For the molecule `Cc1nc(-c2ccc(C(=O)N[C@]3(c4ccc(OC(F)(F)F)cc4)CCOc4cccnc43)cc2)no1` [Example 276, (S)-4-(5-methyl-1,2,4-oxadiazol-3-yl)-N-(4-(4-(trifluoromethoxy)phenyl)-3,4-dihydro-2H-pyrano[3,2-b]pyridin-4-yl)benzamide formate], the half-inhibitory concentration (IC50) worked out at 16 nM.

Regarding `Cc1c(C(=O)O)cc(C(=O)N[C@]2(c3ccc(OC(F)(F)F)c(F)c3)CCOc3cccnc32)n1C` [Example 303], the IC50 is 28 nM.

Turning to `O=C(NC1(c2ccccc2)CCOc2cccnc21)c1ccccc1` (stereo not drawn) [Example 12, N-(4-phenyl-3,4-dihydro-2H-pyrano[3,2-b]pyridin-4-yl)benzamide], the IC50 worked out at 2070 nM.

Take `Cn1cc2ccc(C(=O)N[C@]3(c4ccc(OC(F)(F)F)cc4)CCOc4cccnc43)cc2n1` [Example 265, (S)-2-methyl-N-(4-(4-(trifluoromethoxy)phenyl)-3,4-dihydro-2H-pyrano[3,2-b]pyridin-4-yl)-2H-indazole-6-carboxamide formate]: the IC50 is 14 nM.

Regarding `O=C(N[C@]1(c2ccc(-c3ccncc3)cc2)CCOc2cccnc21)c1ccc(F)cc1` [Example 116, (S)-4-fluoro-N-(4-(4-(pyridin-4-yl)phenyl)-3,4-dihydro-2H-pyrano[3,2-b]pyridin-4-yl)benzamide], the IC50 came to 284 nM.

As for `Cn1ccc(C(=O)N[C@]2(c3ccc(OC(F)(F)F)cc3)CCOc3cccnc32)n1` [Example 227, (S)-1-methyl-N-(4-(4-(trifluoromethoxy)phenyl)-3,4-dihydro-2H-pyrano[3,2-b]pyridin-4-yl)-1H-pyrazole-3-carboxamide formate], the IC50 came out at 58.7 nM.

`COc1ccc(C(=O)O)cc1C(=O)N[C@]1(c2ccc(OC(F)(F)F)c(F)c2)CCOc2cccnc21` [Example 316, (S)-3-((4-(3-fluoro-4-(trifluoro-methoxy)phenyl)-3,4-dihydro-2H-pyrano[3,2-b]pyridin-4-yl)carbamoyl)-4-methoxybenzoic acid]: the IC50 was determined as 89 nM.

As for `O=C(N[C@]1(c2ccc(C(F)(F)F)cc2)CCOc2cccnc21)c1ccc(F)cc1` (single isomer, unassigned) [Example 2], the IC50 was 86 nM.

In the case of `O=C(Nc1cnccn1)N[C@]1(c2ccc(OC(F)(F)F)c(F)c2)CCOc2cccnc21` [Example 82, (S)-1-(4-(3-fluoro-4-(trifluoromethoxy)phenyl)-3,4-dihydro-2H-pyrano[3,2-b]pyridin-4-yl)-3-(pyrazin-2-yl)urea], the IC50 was determined as 134 nM.

In the case of `O=C(N[C@]1(c2ccc(OC(F)(F)F)c(F)c2)CCOc2cccnc21)c1cscn1` [Example 198, (S)-N-(4-(3-fluoro-4-(trifluoromethoxy)phenyl)-3,4-dihydro-2H-pyrano[3,2-b]pyridin-4-yl) thiazole-4-carboxamide], the IC50 was found to be 35 nM.

In the case of `COC(=O)c1ccc(C(=O)N[C@]2(c3ccc(OC(F)(F)F)c(F)c3)CCOc3cccnc32)cc1N` [Example 188, (S)-methyl 2-amino-4-((4-(3-fluoro-4-(trifluoromethoxy)phenyl)-3,4-dihydro-2H-pyrano[3,2-b]pyridin-4-yl)carbamoyl) benzoate], the IC50 is 15 nM.

With `O=C(NC1(c2ccc(Cl)c(Cl)c2)CCOc2cccnc21)c1ccc2oc(=O)[nH]c2c1` (stereo not drawn) [Example 25, N-(4-(3,4-dichlorophenyl)-3,4-dihydro-2H-pyrano[3,2-b]pyridin-4-yl)-2-oxo-2,3-dihydrobenzo[d]oxazole-5-carboxamide], the half-inhibitory concentration (IC50) amounted to 19 nM.

For the molecule `Cn1cnc(C(=O)N[C@]2(c3ccc(OC(F)(F)F)c(F)c3)CCOc3cccnc32)c1` [Example 179, (S)-N-(4-(3-fluoro-4-(trifluoromethoxy)phenyl)-3,4-dihydro-2H-pyrano[3,2-b]pyridin-4-yl)-1-methyl-1H-imidazole-4-carboxamide], the IC50 came to 305 nM.

Consider `O=C(N[C@]1(c2ccc(OC(F)(F)F)c(F)c2)CCOc2cccnc21)c1csc(C(=O)O)n1` [Example 329, (S)-4-((4-(3-fluoro-4-(trifluoro-methoxy)phenyl)-3,4-dihydro-2H-pyrano[3,2-b]pyridin-4-yl)carbamoyl) thiazole-2-carboxylic acid], for which the IC50 is 231 nM.

With `O=C(Nc1ccccn1)N[C@]1(c2ccc(OC(F)(F)F)c(F)c2)CCOc2cccnc21` [Example 95, (S)-1-(4-(3-fluoro-4-(trifluoromethoxy)phenyl)-3,4-dihydro-2H-pyrano[3,2-b]pyridin-4-yl)-3-(pyridin-2-yl)urea], the IC50 stood at 94 nM.
